Like-named read-outs stand apart in the source and are kept apart here.
Tests used:
[1] = test system: T24 cells; assay: Drug cytotoxicity with or without 10 μM modulator, T24 cells (Table V)
[2] = test system: A498 cells; assay: Drug cytotoxicity with or without 10 μM modulator, A498 cells (Table V)
[3] = test system: MCF-7 cells; assay: Drug cytotoxicity with or without 10 μM modulator, MCF-7 cells (Table V)
[4] = test system: NCI/ADR cells; assay: Drug cytotoxicity with or without 10 μM modulator, NCI/ADR cells (Table V); conditions: for IC50: read-out: IC50 (EtOH)
[5] = test system: P388/ADR cells; assay: Drug cytotoxicity with or without 10 μM modulator, P388/ADR cells (Table V); conditions: for IC50: read-out: IC50 (EtOH)
[6] = test system: MCF7/VP cells; assay: Drug cytotoxicity with or without 10 μM modulator, MCF7/VP (MRP1) cells (Table V); conditions: for IC50: read-out: IC50 (EtOH)
[7] = test system: MCF-7 cells; assay: Cytotoxicity toward drug-sensitive MCF-7 cells (sulforhodamine B binding assay); format: cell-based, human; conditions: MCF-7 cells; concentration required to kill 50% of the cells
[8] = target: P-gp (Homo sapiens, UniProt P08183)
P-gp, sequence (P08183 whole entry): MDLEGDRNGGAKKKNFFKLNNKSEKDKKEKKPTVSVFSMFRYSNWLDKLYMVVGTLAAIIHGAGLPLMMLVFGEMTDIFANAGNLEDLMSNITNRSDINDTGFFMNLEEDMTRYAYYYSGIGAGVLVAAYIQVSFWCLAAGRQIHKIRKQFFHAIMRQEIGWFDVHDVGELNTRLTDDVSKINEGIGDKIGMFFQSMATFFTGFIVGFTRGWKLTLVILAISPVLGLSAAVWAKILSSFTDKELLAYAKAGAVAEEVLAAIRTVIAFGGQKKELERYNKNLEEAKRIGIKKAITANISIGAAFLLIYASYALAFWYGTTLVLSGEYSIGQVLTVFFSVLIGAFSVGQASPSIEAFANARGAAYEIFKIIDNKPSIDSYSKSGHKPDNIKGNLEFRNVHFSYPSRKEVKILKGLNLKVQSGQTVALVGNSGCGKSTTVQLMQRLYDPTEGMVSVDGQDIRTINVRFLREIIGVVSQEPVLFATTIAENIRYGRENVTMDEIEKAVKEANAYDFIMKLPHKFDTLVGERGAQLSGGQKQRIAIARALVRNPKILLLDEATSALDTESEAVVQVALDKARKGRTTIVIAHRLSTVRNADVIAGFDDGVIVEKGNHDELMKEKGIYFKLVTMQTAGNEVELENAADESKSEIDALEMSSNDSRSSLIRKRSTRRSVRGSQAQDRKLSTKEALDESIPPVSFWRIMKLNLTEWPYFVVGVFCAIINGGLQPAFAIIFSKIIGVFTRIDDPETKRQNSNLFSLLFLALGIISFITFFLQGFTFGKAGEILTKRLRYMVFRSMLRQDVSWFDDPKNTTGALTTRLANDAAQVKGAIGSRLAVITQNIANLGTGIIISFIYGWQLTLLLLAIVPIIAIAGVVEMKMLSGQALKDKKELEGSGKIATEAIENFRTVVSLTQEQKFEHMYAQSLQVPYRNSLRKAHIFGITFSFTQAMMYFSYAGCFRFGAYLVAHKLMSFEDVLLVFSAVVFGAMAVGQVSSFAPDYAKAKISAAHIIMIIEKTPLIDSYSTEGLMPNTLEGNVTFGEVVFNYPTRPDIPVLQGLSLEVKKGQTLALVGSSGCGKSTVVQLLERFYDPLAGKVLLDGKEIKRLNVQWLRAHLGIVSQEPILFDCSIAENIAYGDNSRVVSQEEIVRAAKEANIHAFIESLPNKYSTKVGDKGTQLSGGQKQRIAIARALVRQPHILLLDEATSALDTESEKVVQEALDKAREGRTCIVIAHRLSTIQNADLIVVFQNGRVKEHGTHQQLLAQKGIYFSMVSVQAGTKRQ
Experimental: The percentage of cells that died following treatment was calculated as a percent decrease in sulforhodamine B binding as compared with control cultures. […] Inhibition of P-gp was manifested as the ability of the compound to enhance the cytotoxicity of vinblastine toward NCI/ADR cells. To assess the toxicity of the compounds toward drug-sensitive cells, the effects of the compounds on the growth of drug-sensitive MCF-7 cells were determined using the same methods.
The P-gp antagonism score was calculated by dividing the percent survival of NCI/ADR cells treated with the compound alone by the percent survival of NCI/ADR cells treated with the compound in the presence of 50 nM vinblastine. Chemosensitization is indicated by a score of more than 1.0.
The P-gp antagonism score was calculated by dividing the percent survival of NCI/ADR cells treated with […] by the percent survival of NCI/ADR cells treated with the compound in the presence of 50 nM vinblastine.

[9] = test system: NCI/ADR cells; assay: Accumulation of [3H]Taxol and [3H]vinblastine by NCI/ADR cells; format: cell-based
[10] = test system: MCF-7 cells; assay: Accumulation of [3H]Taxol and [3H]vinblastine by MCF-7 cells; format: cell-based, human
[11] = test system: MCF-7/VP cells; assay: Accumulation of [3H]Taxol and [3H]vinblastine by MCF-7/VP cells; format: cell-based
[12] = Homo sapiens, T-24, read-out: IC50 (EtOH)
[13] = Homo sapiens, A498, read-out: IC50 (EtOH)
[14] = Homo sapiens, MCF7, read-out: IC50 (EtOH)
[15] = T24 cells, IC50 in the absence / in the presence of 10 μM of verapamil or Compound 4008
[16] = A498 cells, IC50 in the absence / in the presence of 10 μM of verapamil or Compound 4008
[17] = MCF-7 cells, IC50 in the absence / in the presence of 10 μM of verapamil or Compound 4008
[18] = NCI/ADR cells, IC50 in the absence / in the presence of 10 μM of verapamil or Compound 4008
[19] = P388/ADR cells, IC50 in the absence / in the presence of 10 μM of verapamil or Compound 4008
[20] = MCF7/VP (MRP1) cells, IC50 in the absence / in the presence of 10 μM of verapamil or Compound 4008

SMILES: CC(=O)O[C@H]1C(=O)[C@@]2(C)[C@H]([C@H](OC(=O)c3ccccc3)[C@]3(O)C[C@H](OC(=O)[C@H](O)[C@@H](NC(=O)c4ccccc4)c4ccccc4)C(C)=C1C3(C)C)[C@]1(OC(C)=O)CO[C@@H]1C[C@@H]2O [Taxol, reference compound]
- IC50 [1, 12]: 4.7 ± 0.5 nM
- IC50 [2, 13]: 49 ± 21 nM
- IC50 [3, 14]: 1.6 ± 0.3 nM
- IC50 ([4]; Homo sapiens, NCI/ADR-RES): 2020 ± 810 nM
- IC50 ([5]; Mus musculus, P388/ADR): 1650 ± 470 nM
- IC50 ([6]; Homo sapiens, MCF7-VP): 1.8 ± 0.4 nM

SMILES: O=C(Cc1ccccc1)Nc1c2c(nc3ccccc13)N(Cc1ccccc1)CC2 [Compound 4008]
- Toxicity IC50 [7]: 5 µg/mL
- Maximum Antagonism [8]: 17.1 (3.1)
- Maximum Antagonism (conc. μg/ml) [8]: 17.1 (3.1) μg/ml
- therapeutic index [8]: at least 10 fold
- accumulation of [3H]Taxol and [3H]vinblastine [9]: increases the accumulation
- accumulation of [3H]Taxol and [3H]vinblastine [10]: without affecting the accumulation
- accumulation of [3H]Taxol and [3H]vinblastine [11]: without affecting the accumulation
- RI, 5-Fluorouracil [1, 15]: 2.6
- RI, Cisplatin [1, 15]: 1.1
- RI, Taxol [1, 15]: 1.2
- RI, Vinblastine [1, 15]: 3.8
- RI, Vincristine [1, 15]: 1.5
- RI, 5-Fluorouracil [2, 16]: 0.7
- RI, Cisplatin [2, 16]: 0.8
- RI, Taxol [2, 16]: 6.8
- RI, Vinblastine [2, 16]: 18
- RI, Vincristine [2, 16]: 18
- RI, 5-Fluorouracil [3, 17]: 1.6
- RI, Cisplatin [3, 17]: 0.8
- RI, Taxol [3, 17]: 0.9
- RI, Vinblastine [3, 17]: 1.8
- RI, Vincristine [3, 17]: 0.9
- RI, 5-Fluorouracil [4, 18]: 1.0
- RI, Cisplatin [4, 18]: 1.2
- RI, Taxol [4, 18]: 70
- RI, Vinblastine [4, 18]: 35
- RI, Vincristine [4, 18]: 18
- RI, 5-Fluorouracil [5, 19]: 0.7
- RI, Cisplatin [5, 19]: 1.9
- RI, Doxorubicin [5, 19]: 200
- RI, Taxol [5, 19]: 202
- RI, Vinblastine [5, 19]: 63
- RI, Vincristine [5, 19]: 30
- RI, 5-Fluorouracil [6, 20]: 0.7
- RI, Cisplatin [6, 20]: 0.8
- RI, Taxol [6, 20]: 0.8
- RI, Vinblastine [6, 20]: 1.3
- RI, Vincristine [6, 20]: 1.0
- enhancement of the toxicity of vincristine toward MCF7/VP cells ([6]; MRP1-overexpressing MCF7/VP cells): no effect

SMILES: N.N.[Cl][Pt][Cl] [Cisplatin, cisplatin, reference compound]
- IC50 ([1]; read-out: IC50 (EtOH), T24 cells, drug alone, EtOH solvent control, no modulator): 6700 ± 1100 nM
- IC50 ([2]; read-out: IC50 (EtOH), A498 cells, drug alone, EtOH solvent control, no modulator): 4600 ± 1000 nM
- IC50 ([3]; read-out: IC50 (EtOH), MCF-7 cells, drug alone, EtOH solvent control, no modulator): 16000 ± 5000 nM
- IC50 ([4]; NCI/ADR cells, drug alone, EtOH solvent control, no modulator): 7000 ± 900 nM
- IC50 ([5]; P388/ADR cells, drug alone, EtOH solvent control, no modulator): 2100 ± 800 nM
- IC50 ([6]; MCF7/VP (MRP1) cells, drug alone, EtOH solvent control, no modulator): 8500 ± 2100 nM

SMILES: O=c1[nH]cc(F)c(=O)[nH]1 [5-Fluorouracil, 5-fluorouracil, reference compound]
- IC50 [1, 12]: 77000 ± 20000 nM
- IC50 [2, 13]: 9000 ± 2100 nM
- IC50 [3, 14]: 49000 ± 31000 nM
- IC50 ([4]; Homo sapiens, NCI/ADR-RES): 181000 ± 84000 nM
- IC50 ([5]; Mus musculus, P388/ADR): 220 ± 40 nM
- IC50 ([6]; Homo sapiens, MCF7-VP): 11000 ± 1000 nM

SMILES: CC[C@]1(O)C[C@H]2CN(CCc3c([nH]c4ccccc34)[C@@](C(=O)OC)(c3cc4c(cc3OC)N(C=O)[C@H]3[C@@](O)(C(=O)OC)[C@H](OC(C)=O)[C@]5(CC)C=CCN6CC[C@]43[C@@H]65)C2)C1 [Vincristine, vincristine, reference compound]
- IC50 [1, 12]: 4.8 ± 0.2 nM
- IC50 [2, 13]: 62 ± 11 nM
- IC50 [3, 14]: 0.6 ± 0.1 nM
- IC50 ([4]; Homo sapiens, NCI/ADR-RES): 183 ± 14 nM
- IC50 ([5]; Mus musculus, P388/ADR): 150 ± 24 nM
- IC50 ([6]; Homo sapiens, MCF7-VP): 7.5 ± 1.1 nM

SMILES: COc1cccc2c1C(=O)c1c(O)c3c(c(O)c1C2=O)C[C@@](O)(C(=O)CO)C[C@@H]3O[C@H]1C[C@H](N)[C@H](O)[C@H](C)O1 [Doxorubicin, reference compound]
- IC50 ([5]; Mus musculus, P388/ADR): 26700 ± 10600 nM

SMILES: CC[C@]1(O)C[C@@H]2CN(CCc3c([nH]c4ccccc34)[C@@](C(=O)OC)(c3cc4c(cc3OC)N(C)[C@H]3[C@@](O)(C(=O)OC)[C@H](OC(C)=O)[C@]5(CC)C=CCN6CC[C@]43[C@@H]65)C2)C1 [Vinblastine, vinblastine, reference compound]
- IC50 [1, 12]: 1.3 ± 0.3 nM
- IC50 [2, 13]: 7.6 ± 2.6 nM
- IC50 [3, 14]: 0.4 ± 0.1 nM
- IC50 ([4]; Homo sapiens, NCI/ADR-RES): 110 ± 17 nM
- IC50 ([5]; Mus musculus, P388/ADR): 28 ± 5 nM
- IC50 ([6]; Homo sapiens, MCF7-VP): 0.6 ± 0.1 nM
